Experimental data from PubChem BioAssay AID1996.
Converted amounts (≈) assume the structure as drawn.

Settings: buffer; pH 7.4; 200.0 µM

Q: With `COc1cccc(CN2CCN(C(=O)Cc3ccccc3OC)CC2)c1` as the molecule, how does the solubility kinetic read?
A: > 53.2 µg/mL

Q: With `CCOc1cc(C2C(C#N)=C(N)Oc3cc(N)ccc32)ccc1O` (stereo unspecified) as the molecule, how does the solubility kinetic read?
A: 33.5 µg/mL (≈ 104 µM)

Q: For `CCCn1c(C(=O)c2ccc(OC)cc2)nc2ccccc21`, which solubility kinetic is on record?
A: 1.7 µg/mL (≈ 5.78 µM)

Q: With `CN(C)CCOC(=O)CCCCCCCCC(=O)OCCN(C)C.Cl` as the molecule, how does the solubility kinetic read?
A: > 62.6 µg/mL

Q: For `CC1C(=O)N2CCCc3cc(NC(=O)CC(C)(C)C)cc1c32` (stereo unspecified), which solubility kinetic is on record?
A: 39.7 µg/mL (≈ 132 µM)

Q: With `CC(=O)Nc1nnc(SCC(=O)NC2CC2)s1` as the molecule, how does the solubility kinetic read?
A: > 40.9 µg/mL

Q: For `CCC1CCCCN1S(=O)(=O)c1ccccc1` (stereo unspecified), which solubility kinetic is on record?
A: 31.5 µg/mL (≈ 124 µM)

Q: Which solubility kinetic does the source give for `Cc1ccc(S(=O)(=O)Nc2cccc(S(=O)(=O)Nc3ccccc3C(=O)O)c2)c(C)c1` here?
A: > 69.1 µg/mL

Q: For `CCCCCNC(=O)[C@@H]1CSC2c3ccccc3C(=O)N21` (stereo partly specified), which solubility kinetic is on record?
A: 27.7 µg/mL (≈ 91 µM)

Q: For `CCCN(CC(=O)Nc1ccccc1OC)C(=O)C1CCCC1`, which solubility kinetic is on record?
A: > 47.8 µg/mL

Q: For `O=C(CN1CCN(Cc2ccc(F)cc2)CC1)Nc1ccccc1F`, which solubility kinetic is on record?
A: > 51.8 µg/mL

Q: Which solubility kinetic does the source give for `CCC(=O)c1cn(Cc2ccccc2)c2ccccc12` here?
A: 1 µg/mL (≈ 3.8 µM)

Q: Which solubility kinetic does the source give for `O=C(Nc1cccc(Br)c1)c1cc(=O)c2ccccc2o1` here?
A: < 0.7 µg/mL

Q: For `CC(=O)Nc1cc(O)cc(O)c1`, which solubility kinetic is on record?
A: > 25.1 µg/mL

Q: For `CC(C)N(Cc1ccccc1)C(=O)COC(=O)c1c(F)cccc1F`, which solubility kinetic is on record?
A: > 52.1 µg/mL

Q: Which solubility kinetic does the source give for `Cn1cccc1CNC(=S)Nc1cc(F)cc(F)c1` here?
A: > 42.2 µg/mL

Q: Which solubility kinetic does the source give for `Cc1ccc(C(O)Cn2cc([N+](=O)[O-])nc2C)cc1` (stereo unspecified) here?
A: > 39.2 µg/mL

Q: With `COc1ccc(C(=O)NC23CC4CC(CC(C4)C2)C3)cc1OC` as the molecule, how does the solubility kinetic read?
A: 2.9 µg/mL (≈ 9.19 µM)

Q: Which solubility kinetic does the source give for `CCc1onc(C)c1C(=O)O` here?
A: > 23.3 µg/mL

Q: For `N#CCN1C(=O)C(=O)N(Cc2cccc(Cl)c2)C1=O`, which solubility kinetic is on record?
A: > 41.7 µg/mL

Q: With `CC(SCc1ccccc1)C(=O)Nc1ccccc1` (stereo unspecified) as the molecule, how does the solubility kinetic read?
A: 32.1 µg/mL (≈ 118 µM)

Q: For `O=C(CN1CCS(=O)(=O)CC1)NNC(=O)C1CCCCC1`, which solubility kinetic is on record?
A: > 47.6 µg/mL

Q: With `O=C(Nc1cccc2ncccc12)c1ccco1` as the molecule, how does the solubility kinetic read?
A: 30.5 µg/mL (≈ 128 µM)

Q: With `Cn1c2ccc(F)cc2c2ncn(Cc3ccccn3)c(=O)c21` as the molecule, how does the solubility kinetic read?
A: 7.9 µg/mL (≈ 25.6 µM)

Q: For `O=C(NC(=S)Nc1ccccc1)c1cccs1`, which solubility kinetic is on record?
A: 1.4 µg/mL (≈ 5.34 µM)

Q: For `Cc1cc(C)c(S(=O)(=O)Nc2ccncc2)cc1C`, which solubility kinetic is on record?
A: 19.2 µg/mL (≈ 69.5 µM)

Q: Which solubility kinetic does the source give for `Clc1ccccc1OCCCn1ccnc1` here?
A: 26.4 µg/mL (≈ 112 µM)

Q: Which solubility kinetic does the source give for `CCC(=O)Nc1ccc2c(c1)ncn2-c1ccccc1C` here?
A: > 41.9 µg/mL

Q: For `Cc1ccc(C(=O)Nc2nccc(C)n2)cc1`, which solubility kinetic is on record?
A: 21.9 µg/mL (≈ 96.4 µM)

Q: For `COc1ccc(NC(=O)c2ccc(-c3ccc([N+](=O)[O-])cc3)o2)cc1`, which solubility kinetic is on record?
A: 1.2 µg/mL (≈ 3.55 µM)

Q: Which solubility kinetic does the source give for `COc1ccc(CC(=O)Nc2cccc3ccccc23)cc1OC` here?
A: 7.1 µg/mL (≈ 22.1 µM)

Q: For `COc1cccc(OC)c1C1=NC(C)(C)CO1`, which solubility kinetic is on record?
A: > 35.3 µg/mL

Q: Which solubility kinetic does the source give for `Cc1cccc(CCNC(=O)c2oc3c(C)c(C)ccc3c2C)n1` here?
A: 1.9 µg/mL (≈ 5.89 µM)

Q: With `Cc1[nH]c(=O)nc(SCc2cccc(Cl)c2)c1C#N` as the molecule, how does the solubility kinetic read?
A: 12.2 µg/mL (≈ 41.8 µM)

Q: With `CC(=O)NC1CCN(CC(=O)Nc2cccc([N+](=O)[O-])c2)CC1` as the molecule, how does the solubility kinetic read?
A: 43.7 µg/mL (≈ 136 µM)

Q: For `O=S(=O)(NCC1CCCO1)c1ccccc1` (stereo unspecified), which solubility kinetic is on record?
A: > 36.2 µg/mL

Q: Which solubility kinetic does the source give for `CC1CCN(CCC(=O)Nc2ccccc2)CC1` here?
A: 29.5 µg/mL (≈ 120 µM)

Q: For `COc1ccc(NS(=O)(=O)c2cccc(C(=O)O)c2)cc1S(=O)(=O)N1CCCCC1`, which solubility kinetic is on record?
A: > 68.2 µg/mL

Q: Which solubility kinetic does the source give for `Cc1ccc(S(=O)(=O)CCSc2ccc(C(F)(F)F)cn2)cc1` here?
A: < 0.8 µg/mL

Q: Which solubility kinetic does the source give for `C=CCn1c(SCC#N)nnc1-c1ccc2ncccc2c1` here?
A: > 46.1 µg/mL

Q: For `COc1ccccc1C(=O)NCCC(=O)Nc1cccc(C)n1`, which solubility kinetic is on record?
A: > 47 µg/mL

Q: With `COc1ccccc1-c1cc(C(=O)NC2CCCC2)no1` as the molecule, how does the solubility kinetic read?
A: 6.1 µg/mL (≈ 21.3 µM)

Q: With `Cc1ccc(N(C)S(=O)(=O)c2csc(C(N)=O)c2)cc1C` as the molecule, how does the solubility kinetic read?
A: 43.8 µg/mL (≈ 135 µM)

Q: For `Cn1c(N)c(C(=O)COC(=O)Cc2ccccc2)c(=O)n(C)c1=O`, which solubility kinetic is on record?
A: > 49.7 µg/mL

Q: With `CN(Cc1c(O)ccc2c1oc(=O)c1ccccc12)C1CCCCC1` as the molecule, how does the solubility kinetic read?
A: > 50.6 µg/mL

Q: For `O=C(c1c(F)cccc1F)N1CCCC1`, which solubility kinetic is on record?
A: > 31.7 µg/mL

Q: For `COC(c1ccccc1)(c1ccccc1)C(Oc1nc(C)cc(C)n1)C(=O)O` (stereo unspecified), which solubility kinetic is on record?
A: > 56.8 µg/mL

Q: With `Cc1ccc(SCC(=O)NC2CCCCCC2)cc1` as the molecule, how does the solubility kinetic read?
A: > 41.6 µg/mL

Q: With `COC(=O)c1sccc1NC(=S)OC` as the molecule, how does the solubility kinetic read?
A: 6.1 µg/mL (≈ 26.4 µM)

Q: With `O=C(c1cc(Br)c[nH]1)N1CCCCC1` as the molecule, how does the solubility kinetic read?
A: > 38.6 µg/mL

Q: For `Cc1ccc2nc(-c3ccccc3C)oc(=O)c2c1`, which solubility kinetic is on record?
A: < 0.5 µg/mL

Q: For `Cc1ccc(CCNC(=O)CSCc2ccc(F)cc2)cc1`, which solubility kinetic is on record?
A: 13.5 µg/mL (≈ 42.5 µM)

Q: For `Cc1ccc2c(c1)/C(=C/c1ccccc1)C(=O)N2`, which solubility kinetic is on record?
A: 2.3 µg/mL (≈ 9.78 µM)

Q: For `O=C1CN=C(c2ccc(Cl)cc2)c2oc3ccccc3c2N1`, which solubility kinetic is on record?
A: < 0.3 µg/mL

Q: With `CCOc1ccc(S(=O)(=O)N2CCN(C(=O)C3CC3C)CC2)cc1` (stereo unspecified) as the molecule, how does the solubility kinetic read?
A: 51.7 µg/mL (≈ 147 µM)

Q: For `O=C(N/C(=C\c1ccccc1)C(=O)N1CCCCC1)c1ccc(Br)o1`, which solubility kinetic is on record?
A: > 60.5 µg/mL

Q: With `O=C(CNC(=O)c1cccc(F)c1)N/N=C/c1cccs1` as the molecule, how does the solubility kinetic read?
A: > 45.8 µg/mL

Q: With `CN(C(=O)c1ccco1)c1nc(-c2ccc(Cl)cc2)cs1` as the molecule, how does the solubility kinetic read?
A: 0.9 µg/mL (≈ 2.82 µM)

Q: For `CCCC(CNC(=O)COC(=O)C1=NNC(=O)CC1)c1ccc(Cl)cc1Cl` (stereo unspecified), which solubility kinetic is on record?
A: > 62.1 µg/mL

Q: Which solubility kinetic does the source give for `Cc1ccc(S(=O)(=O)CC(=O)Nc2nc3ccccc3s2)cc1` here?
A: 1.3 µg/mL (≈ 3.75 µM)

Q: With `COC(=O)c1c(C)[nH]c(C(=O)CN2C(=O)C3CC=CCC3C2=O)c1C` (stereo unspecified) as the molecule, how does the solubility kinetic read?
A: > 51.7 µg/mL
